# From paper PMC7181660, “A novel specific PERK activator reduces toxicity and extends survival in Huntington's disease models” (Scientific Reports, 2020)
# Read-outs that look alike come from different tables or passages of the source.
# What was measured:
# Assay in all cases: biochemical
# Format in all cases: biochemical
# panel of 391 kinases [1] = target: panel of 391 kinases (Homo sapiens, UniProt O95819); conditions: HGK/MAP4K4, MK-28 1 µM, ATP 1 µM
# panel of 391 kinases [2] = target: panel of 391 kinases (Homo sapiens, UniProt O95835); conditions: LATS1, MK-28 1 µM, ATP 1 µM
# panel of 391 kinases [3] = target: panel of 391 kinases (Homo sapiens, UniProt P45984); conditions: JNK2, MK-28 1 µM, ATP 1 µM
# panel of 391 kinases [4] = target: panel of 391 kinases (Homo sapiens, UniProt Q8NE63); conditions: HIPK4, MK-28 1 µM, ATP 1 µM
# panel of 391 kinases [5] = target: panel of 391 kinases (Homo sapiens, UniProt P43405); conditions: SYK, MK-28 1 µM, ATP 1 µM
# panel of 391 kinases [6] = target: panel of 391 kinases (Homo sapiens, UniProt Q16620); conditions: TRKB, MK-28 1 µM, ATP 1 µM
# panel of 391 kinases [7] = target: panel of 391 kinases (Homo sapiens, UniProt Q13153); conditions: PAK1, MK-28 1 µM, ATP 1 µM
# panel of 391 kinases [8] = target: panel of 391 kinases (Homo sapiens, UniProt Q9HBY8); conditions: SGK2, MK-28 1 µM, ATP 1 µM
# panel of 391 kinases [9] = target: panel of 391 kinases (Homo sapiens, UniProt Q13627); conditions: DYRK1/DYRK1A, MK-28 1 µM, ATP 1 µM
# panel of 391 kinases [10] = target: panel of 391 kinases (Homo sapiens, UniProt P51817); conditions: PRKX, MK-28 1 µM, ATP 1 µM
# panel of 391 kinases [11] = target: panel of 391 kinases (Homo sapiens, UniProt Q02156); conditions: PKCepsilon, MK-28 1 µM, ATP 1 µM
# panel of 391 kinases [12] = target: panel of 391 kinases (Homo sapiens, UniProt Q9UEE5); conditions: DRAK1/STK17A, MK-28 1 µM, ATP 1 µM
# panel of 391 kinases [13] = target: panel of 391 kinases (Homo sapiens, UniProt Q6P5Z2); conditions: PKN3/PRK3, MK-28 1 µM, ATP 1 µM
# panel of 391 kinases [14] = target: panel of 391 kinases (Homo sapiens, UniProt Q15118); conditions: kinase PDK1/PDHK1, compound at 1 µM, single dose in duplicates, 1 µM ATP
# panel of 391 kinases [15] = target: panel of 391 kinases (Homo sapiens, UniProt Q05513); conditions: PKCzeta, MK-28 1 µM, ATP 1 µM
# panel of 391 kinases [16] = target: panel of 391 kinases (Homo sapiens, UniProt Q16512); conditions: PKN1/PRK1, MK-28 1 µM, ATP 1 µM
# panel of 391 kinases [17] = target: panel of 391 kinases (Homo sapiens, UniProt Q13164); conditions: ERK5/MAPK7, MK-28 1 µM, ATP 1 µM
# panel of 391 kinases [18] = target: panel of 391 kinases (Homo sapiens, UniProt P11362); conditions: FGFR1, MK-28 1 µM, ATP 1 µM
# panel of 391 kinases [19] = target: panel of 391 kinases (Homo sapiens, UniProt P04629); conditions: TRKA, MK-28 1 µM, ATP 1 µM
# panel of 391 kinases [20] = target: panel of 391 kinases (Homo sapiens, UniProt Q13233); conditions: MEKK1, MK-28 1 µM, ATP 1 µM
# panel of 391 kinases [21] = target: panel of 391 kinases (Homo sapiens, UniProt O00238); conditions: ALK6/BMPR1B, MK-28 1 µM, ATP 1 µM
# panel of 391 kinases [22] = target: panel of 391 kinases (Homo sapiens, UniProt P11802); conditions: MK-28 1 µM, ATP 1 µM; for remaining activity at 1 µM: read-out: % Enzyme Activity (relative to DMSO controls)
# panel of 391 kinases [23] = target: panel of 391 kinases (Homo sapiens, UniProt P53355); conditions: DAPK1, MK-28 1 µM, ATP 1 µM
# panel of 391 kinases [24] = target: panel of 391 kinases (Homo sapiens, UniProt Q9Y3S1); conditions: WNK2, MK-28 1 µM, ATP 1 µM
# panel of 391 kinases [25] = target: panel of 391 kinases (Homo sapiens, UniProt P54764); conditions: EPHA4, MK-28 1 µM, ATP 1 µM
# panel of 391 kinases [26] = target: panel of 391 kinases (Homo sapiens, UniProt Q13177); conditions: PAK2, MK-28 1 µM, ATP 1 µM
# [27] = read-out: % Enzyme Activity (relative to DMSO controls)
compound,measurement,setting,value
CN(/N=C\c1ccc(O)c(O)c1)c1nc(-c2ccccc2)cc(-c2ccccc2)n1 [MK-28],% Enzyme Activity (relative to DMSO controls),panel of 391 kinases [1],95.38%
same,remaining activity at 1 µM,panel of 391 kinases [1]; [27],102%
same,% Enzyme Activity (relative to DMSO controls),panel of 391 kinases [2],99.22%
same,remaining activity at 1 µM,panel of 391 kinases [2]; [27],101%
same,% Enzyme Activity (relative to DMSO controls),panel of 391 kinases [3],90.48%
same,remaining activity at 1 µM,panel of 391 kinases [3]; [27],90.8%
same,% Enzyme Activity (relative to DMSO controls),panel of 391 kinases [4],97.91%
same,remaining activity at 1 µM,panel of 391 kinases [4]; [27],98.4%
same,% Enzyme Activity (relative to DMSO controls),panel of 391 kinases [5],91.75%
same,remaining activity at 1 µM,panel of 391 kinases [5]; [27],93%
same,% Enzyme Activity (relative to DMSO controls),panel of 391 kinases [6],96.28%
same,remaining activity at 1 µM,panel of 391 kinases [6]; [27],96.3%
same,% Enzyme Activity (relative to DMSO controls),panel of 391 kinases [7],100.75%
same,remaining activity at 1 µM,panel of 391 kinases [7]; [27],102%
same,% Enzyme Activity (relative to DMSO controls),panel of 391 kinases [8],79.78%
same,remaining activity at 1 µM,panel of 391 kinases [8]; [27],81.3%
same,% Enzyme Activity (relative to DMSO controls),panel of 391 kinases [9],102.59%
same,remaining activity at 1 µM,panel of 391 kinases [9]; [27],103%
same,% Enzyme Activity (relative to DMSO controls),panel of 391 kinases [10],101.69%
same,remaining activity at 1 µM,panel of 391 kinases [10]; [27],104%
same,% Enzyme Activity (relative to DMSO controls),panel of 391 kinases [11],100.42%
same,remaining activity at 1 µM,panel of 391 kinases [11]; [27],102%
same,% Enzyme Activity (relative to DMSO controls),panel of 391 kinases [12],99.69%
same,remaining activity at 1 µM,panel of 391 kinases [12]; [27],102%
same,% Enzyme Activity (relative to DMSO controls),panel of 391 kinases [13],98.68%
same,remaining activity at 1 µM,panel of 391 kinases [13]; [27],101%
same,% Enzyme Activity (relative to DMSO controls),panel of 391 kinases [14],100.80%
same,remaining activity at 1 µM,panel of 391 kinases [14]; [27],101%
same,% Enzyme Activity (relative to DMSO controls),panel of 391 kinases [15],100.19%
same,remaining activity at 1 µM,panel of 391 kinases [15]; [27],100%
same,% Enzyme Activity (relative to DMSO controls),panel of 391 kinases [16],112.74%
same,remaining activity at 1 µM,panel of 391 kinases [16]; [27],113%
same,% Enzyme Activity (relative to DMSO controls),panel of 391 kinases [17],118.22%
same,remaining activity at 1 µM,panel of 391 kinases [17]; [27],119%
same,% Enzyme Activity (relative to DMSO controls),panel of 391 kinases [18],103.69%
same,remaining activity at 1 µM,panel of 391 kinases [18]; [27],105%
same,% Enzyme Activity (relative to DMSO controls),panel of 391 kinases [19],106.86%
same,remaining activity at 1 µM,panel of 391 kinases [19]; [27],108%
same,% Enzyme Activity (relative to DMSO controls),panel of 391 kinases [20],92.45%
same,remaining activity at 1 µM,panel of 391 kinases [20]; [27],95.1%
same,% Enzyme Activity (relative to DMSO controls),panel of 391 kinases [21],100.96%
same,remaining activity at 1 µM,panel of 391 kinases [21]; [27],101%
same,% Enzyme Activity (relative to DMSO controls),panel of 391 kinases [22]; CDK4/cyclin D1,95.51%
same,remaining activity at 1 µM,panel of 391 kinases [22]; CDK4/cyclin D1,95.6%
same,% Enzyme Activity (relative to DMSO controls),panel of 391 kinases [22]; CDK4/cyclin D3,98.69%
same,remaining activity at 1 µM,panel of 391 kinases [22]; CDK4/cyclin D3,100%
same,% Enzyme Activity (relative to DMSO controls),panel of 391 kinases [23],129.26%
same,remaining activity at 1 µM,panel of 391 kinases [23]; [27],135%
same,% Enzyme Activity (relative to DMSO controls),panel of 391 kinases [24],89.30%
same,remaining activity at 1 µM,panel of 391 kinases [24]; [27],90.7%
same,% Enzyme Activity (relative to DMSO controls),panel of 391 kinases [25],100.54%
same,remaining activity at 1 µM,panel of 391 kinases [25]; [27],101%
same,% Enzyme Activity (relative to DMSO controls),panel of 391 kinases [26],99.51%
same,remaining activity at 1 µM,panel of 391 kinases [26]; [27],99.7%
